“And” between values parts separate entries of the source, which are not always exact repeats. Equal entries are not always repeated.
How the values were obtained:
Type in all cases: cell-based
Escherichia coli = assay: Survival of organisms in inoculated urine with preservative components, 24 hours at room temperature; set-up: key to Survival value esco: 24 h count / control count; 1 = no change, 0.1 = 1-log decrease
Experimental: (§1) Antimicrobial activity for each active ingredient in the Chemistat I formulations was first determined for representative organisms listed in Table I. A culture for each organism of interest on blood agar was incubated at 36° C. overnight. About two to three colonies of the organism were transferred via sterile swab from the blood agar culture into a 5 ml Mueller-Hinton broth culture tube, which was then incubated on a rotator for about two to three hours at 36° C. Using a spectrophotometer set at a wavelength of 630 nm, the turbidity of broth culture was adjusted by the addition of Mueller-Hinton broth to an optical density equivalent to approximately 1×10^8 colony forming units (cfu)/ml to form an inoculum solution. An aliquot of the inoculum solution was plated onto blood agar to determine the actual control organism count. For each component listed in Table II, the component was added to filter-sterilized pooled normal urine at the concentration given in Table II to form a test sample. The test sample was then inoculated with an aliquot of the inoculum solution providing a final organism count of approximately 1×10^6 cfu/ml of test sample. Immediately after thorough mixing, an aliquot of the test sample was removed and serially diluted in PBS, and serial dilutions were plated onto blood agar to determine the Time Zero organism count. The inoculated plates were incubated at 36° C., and organism counts were recorded after 18-24 hours. After incubating the test sample for 24 hours at room temperature, an aliquot of the test sample was again removed, serially diluted in PBS and plated onto blood agar. After incubating for 18-24 hours at 36° C., organism counts were obtained. The organism count obtained after 24 hours incubation at room temperature was divided by the control organism count to provide the survival value of each organism as recorded in Table II. With respect to changes in microbial count, a survival value of 1 represents no change; a survival value of 0.1 indicates a 1-log decrease; a survival value of 10 indicates a 1-log increase; and a survival value of 0.000 represents a decrease of greater than or equal to 3-logs. In comparison, the lower the survival value, the greater the component's capacity for controlling organism growth.

Enterobacter aerogenes = assay: as above; set-up: key to Survival value enae: 24 h count / control count; 1 = no change, 0.1 = 1-log decrease; settings: for Concentration inhibitory against Enterobacter aerogenes (ineffective up to = >) / Concentration with cidal activity against Enterobacter aerogenes: component alone
Experimental: as §1

Proteus vulgaris = assay: as above
Experimental: as §1

Pseudomonas aeruginosa = assay: as above; settings: for Concentration inhibitory against Pseudomonas aeruginosa (ineffective up to = >) / Concentration with cidal activity against Pseudomonas aeruginosa: component alone
Experimental: as §1

Klebsiella pneumoniae = assay: as above
Experimental: as §1

Enterococcus faecalis = assay: as above; set-up: key to Survival value enfa: 24 h count / control count; 1 = no change, 0.1 = 1-log decrease; settings: for Concentration inhibitory against Enterococcus faecalis (ineffective up to = >) / Concentration with cidal activity against Enterococcus faecalis: component alone
Experimental: as §1

Candida albicans = assay: as above; set-up: key to Survival value caal: 24 h count / control count; 1 = no change, 0.1 = 1-log decrease; settings: for Concentration inhibitory against Candida albicans (ineffective up to = >) / Concentration with cidal activity against Candida albicans: component alone
Experimental: as §1

[1] = system: microorganisms of interest; assay: Antimicrobial (cidal) activity against the organisms of interest taken together; settings: component alone
Experimental: as §1, with “With respect to changes in microbial count, a survival value of 1 represents no change; a survival value of 0.1 indicates a 1-log decrease; a survival value of 10 indicates a 1-log increase; and a survival value of 0.000 represents a decrease of greater than or equal to 3-logs. In comparison, the lower the survival value, the greater the component's capacity for controlling organism growth.” left out

[2] = single component at 0.005 mg/ml
[3] = single component at 0.0075 mg/ml

Structure (SMILES): CCOC(=O)c1ccc(O)cc1 [Ethyl parahydroxybenzoate, ethyl parahydroxybenzoate]
- Concentration with cidal activity against Escherichia coli (Escherichia coli; component alone): 1 mg/mL
- Survival value esco (Escherichia coli; single component at 0.5 mg/ml): tntc
- Survival value esco (Escherichia coli; single component at 1 mg/ml): 0.000
- Concentration inhibitory against Enterobacter aerogenes (ineffective up to = >) (Enterobacter aerogenes): 1 mg/mL
- Survival value enae (Enterobacter aerogenes; single component at 1 mg/ml): 0.208
- Concentration inhibitory against Proteus vulgaris (ineffective up to = >) (Proteus vulgaris; component alone): > 1 mg/mL
- Survival value prvu (Proteus vulgaris; single component at 0.5 mg/ml): tntc
- Concentration inhibitory against Pseudomonas aeruginosa (ineffective up to = >) (Pseudomonas aeruginosa): > 1 mg/mL
- Survival value psae (Pseudomonas aeruginosa; single component at 0.5 mg/ml): tntc
- Survival value psae (Pseudomonas aeruginosa; single component at 1 mg/ml): tntc
- Concentration inhibitory against Klebsiella pneumoniae (ineffective up to = >) (Klebsiella pneumoniae; component alone): > 1 mg/mL
- Survival value klpn (Klebsiella pneumoniae; single component at 0.5 mg/ml): tntc
- Concentration inhibitory against Enterococcus faecalis (ineffective up to = >) (Enterococcus faecalis): > 1 mg/mL
- Survival value enfa (Enterococcus faecalis; single component at 0.5 mg/ml): tntc
- Survival value enfa (Enterococcus faecalis; single component at 1 mg/ml): tntc
- Concentration inhibitory against Candida albicans (ineffective up to = >) (Candida albicans): 0.5 mg/mL
- Survival value caal (Candida albicans; single component at 0.5 mg/ml): 0.362

Structure (SMILES): CCC(=O)[O-].[Na+] [Sodium propionate, sodium propionate]
- Concentration inhibitory against Escherichia coli (ineffective up to = >) (Escherichia coli; component alone): > 10 mg/mL
- Survival value esco (Escherichia coli; single component at 5 mg/ml): tntc
- Survival value esco (Escherichia coli; single component at 10 mg/ml): tntc
- Concentration inhibitory against Enterobacter aerogenes (ineffective up to = >) (Enterobacter aerogenes): > 10 mg/mL
- Concentration inhibitory against Proteus vulgaris (ineffective up to = >) (Proteus vulgaris; component alone): > 10 mg/mL
- Survival value prvu (Proteus vulgaris; single component at 5 mg/ml): tntc
- Concentration inhibitory against Pseudomonas aeruginosa (ineffective up to = >) (Pseudomonas aeruginosa): 10 mg/mL
- Survival value psae (Pseudomonas aeruginosa; single component at 5 mg/ml): tntc
- Survival value psae (Pseudomonas aeruginosa; single component at 10 mg/ml): 0.341
- Concentration inhibitory against Klebsiella pneumoniae (ineffective up to = >) (Klebsiella pneumoniae; component alone): > 10 mg/mL
- Survival value klpn (Klebsiella pneumoniae; single component at 5 mg/ml): tntc
- Concentration inhibitory against Enterococcus faecalis (ineffective up to = >) (Enterococcus faecalis): 10 mg/mL
- Survival value enfa (Enterococcus faecalis; single component at 5 mg/ml): tntc
- Survival value enfa (Enterococcus faecalis; single component at 10 mg/ml): 2.702
- Concentration inhibitory against Candida albicans (ineffective up to = >) (Candida albicans): > 10 mg/mL
- Survival value caal (Candida albicans; single component at 5 mg/ml): tntc

Structure (SMILES): OB(O)O [Boric Acid, boric acid, reference compound]
- Antimicrobial action against Escherichia coli, in words (Escherichia coli; concentrations as in label): ineffective
- Survival value esco (Escherichia coli; single component at 5 mg/ml): 0.770
- Antimicrobial action against Enterobacter aerogenes, in words (Enterobacter aerogenes; concentrations as in label): ineffective
- Survival value enae (Enterobacter aerogenes; single component at 5 mg/ml): 1.061
- Antimicrobial action against Pseudomonas aeruginosa, in words (Pseudomonas aeruginosa; concentrations as in label): ineffective
- Survival value psae (Pseudomonas aeruginosa; single component at 5 mg/ml): 1.157
- Antimicrobial action against Enterococcus faecalis, in words (Enterococcus faecalis; concentrations as in label): ineffective
- Survival value enfa (Enterococcus faecalis; single component at 5 mg/ml): 2.647

Structure (SMILES): OCCc1ccccc1 [2-Phenyl ethanol, 2-phenyl ethanol]
- Concentration with cidal activity against Escherichia coli (Escherichia coli; component alone): 4 μl/ml
- Survival value esco (Escherichia coli; single component at 1 μl/ml): tntc
- Survival value esco (Escherichia coli; single component at 1.8 μl/ml): tntc
- Survival value esco (Escherichia coli; single component at 2.5 μl/ml): 0.245
- Survival value esco (Escherichia coli; single component at 4 μl/ml): 0.000
- Survival value esco (Escherichia coli; single component at 10 μl/ml): 0.000
- Concentration required for cidal action [1]: greater than 2.5 μl/ml
- Concentration with cidal activity against Enterobacter aerogenes (Enterobacter aerogenes): 10 μl/ml
- Survival value enae (Enterobacter aerogenes; single component at 1 μl/ml): tntc
- Survival value enae (Enterobacter aerogenes; single component at 2.5 μl/ml): 0.092
- Survival value enae (Enterobacter aerogenes; single component at 4 μl/ml): 0.244
- Survival value enae (Enterobacter aerogenes; single component at 5 μl/ml): 0.440
- Survival value enae (Enterobacter aerogenes; single component at 10 μl/ml): 0.000
- Survival value prvu (Proteus vulgaris; single component at 1.8 μl/ml): tntc
- Concentration with cidal activity against Pseudomonas aeruginosa (Pseudomonas aeruginosa): 5 μl/ml
- Survival value psae (Pseudomonas aeruginosa; single component at 1 μl/ml): 4.819
- Survival value psae (Pseudomonas aeruginosa; single component at 1.8 μl/ml): tntc
- Survival value psae (Pseudomonas aeruginosa; single component at 2.5 μl/ml): 0.199
- Survival value psae (Pseudomonas aeruginosa; single component at 4 μl/ml): 0.019
- Survival value psae (Pseudomonas aeruginosa; single component at 5 μl/ml): 0.000
- Survival value psae (Pseudomonas aeruginosa; single component at 10 μl/ml): 0.000
- Survival value klpn (Klebsiella pneumoniae; single component at 1.8 μl/ml): tntc
- Concentration with cidal activity against Enterococcus faecalis (Enterococcus faecalis): > 10 μl/ml
- Survival value enfa (Enterococcus faecalis; single component at 1 μl/ml): tntc
- Survival value enfa (Enterococcus faecalis; single component at 1.8 μl/ml): tntc
- Survival value enfa (Enterococcus faecalis; single component at 2.5 μl/ml): tntc
- Survival value enfa (Enterococcus faecalis; single component at 4 μl/ml): tntc
- Survival value enfa (Enterococcus faecalis; single component at 5 μl/ml): tntc
- Survival value enfa (Enterococcus faecalis; single component at 10 μl/ml): 1.495
- Concentration with cidal activity against Candida albicans (Candida albicans): 10 μl/ml
- Survival value caal (Candida albicans; single component at 1.8 μl/ml): tntc
- Survival value caal (Candida albicans; single component at 4 μl/ml): 1.081
- Survival value caal (Candida albicans; single component at 10 μl/ml): 0.000

Structure (SMILES): [H]/N=C(\N/C(=N/[H])NCCCCCCNC(=N)NC(=N)Nc1ccc(Cl)cc1)Nc1ccc(Cl)cc1 [Chlorhexidine, chlorhexidine, reference compound]
- Concentration with cidal activity against Escherichia coli (Escherichia coli; component alone): 0.0075 mg/mL
- Survival value esco (Escherichia coli; [2]): 0.003
- Survival value esco (Escherichia coli; [3]): 0.000
- Survival value esco (Escherichia coli; single component at 0.01 mg/ml): 0.000
- Survival value esco (Escherichia coli; single component at 0.02 mg/ml): 0.000
- Survival value esco (Escherichia coli; single component at 0.05 mg/ml): 0.000
- Survival value esco (Escherichia coli; single component at 0.1 mg/ml): 0.000
- Survival value esco (Escherichia coli; single component at 0.8 mg/ml): 0.000
- Concentration required for cidal action [1]: greater than or equal to 0.01 mg/ml
- Concentration with cidal activity against Enterobacter aerogenes (Enterobacter aerogenes): 0.01 mg/mL
- Survival value enae (Enterobacter aerogenes; [2]): tntc
- Survival value enae (Enterobacter aerogenes; [3]): 6.098
- Survival value enae (Enterobacter aerogenes; single component at 0.01 mg/ml): 0.000
- Survival value enae (Enterobacter aerogenes; single component at 0.05 mg/ml): 0.000
- Concentration with cidal activity against Proteus vulgaris (Proteus vulgaris; component alone): 0.02 mg/mL
- Survival value prvu (Proteus vulgaris; single component at 0.02 mg/ml): 0.000
- Concentration with cidal activity against Pseudomonas aeruginosa (Pseudomonas aeruginosa): > 0.05 mg/mL
- Survival value psae (Pseudomonas aeruginosa; [2]): tntc
- Survival value psae (Pseudomonas aeruginosa; [3]): 4.049
- Survival value psae (Pseudomonas aeruginosa; single component at 0.01 mg/ml): 0.277
- Survival value psae (Pseudomonas aeruginosa; single component at 0.05 mg/ml): 0.046
- Concentration with cidal activity against Klebsiella pneumoniae (Klebsiella pneumoniae; component alone): 0.02 mg/mL
- Survival value klpn (Klebsiella pneumoniae; single component at 0.02 mg/ml): 0.000
- Concentration with cidal activity against Enterococcus faecalis (Enterococcus faecalis): 0.05 to 0.8 mg/mL
- Survival value enfa (Enterococcus faecalis; [2]): 1.115
- Survival value enfa (Enterococcus faecalis; [3]): 0.598
- Survival value enfa (Enterococcus faecalis; single component at 0.01 mg/ml): 0.520
- Survival value enfa (Enterococcus faecalis; single component at 0.02 mg/ml): 0.179 and 0.141
- Survival value enfa (Enterococcus faecalis; single component at 0.05 mg/ml): 0.000
- Survival value enfa (Enterococcus faecalis; single component at 0.1 mg/ml): 0.561
- Survival value enfa (Enterococcus faecalis; single component at 0.8 mg/ml): 0.000
- Concentration with cidal activity against Candida albicans (Candida albicans): 0.0075 mg/mL
- Survival value caal (Candida albicans; [2]): 5.308
- Survival value caal (Candida albicans; [3]): 0.000
- Survival value caal (Candida albicans; single component at 0.02 mg/ml): 0.000
- Survival value caal (Candida albicans; single component at 0.05 mg/ml): 0.000
- Survival value caal (Candida albicans; single component at 0.1 mg/ml): 0.000
- Survival value caal (Candida albicans; single component at 0.8 mg/ml): 0.000

Source: US6946297B2, “System for stabilizing samples” (priority 1999, dated 2005)
